Data from a melting point compilation (Tetko et al.; mined from patent text by program, amines drawn as free bases though some values may be those of a salt).

| melting point [°C] | SMILES |
| --- | --- |
| 88 to 98 | Cc1noc(NS(=O)(=O)c2ccccc2-c2ccc(-n3cccn3)cc2)c1C |
| 110 to 113 | CCOC(=O)c1ccc(-c2cc(-c3ccc4c(c3)C(C)(C)CCC4(C)C)ccc2OS(=O)(=O)C(F)(F)F)cc1 |
| 209 to 211 | O=S1(=O)N=CN(C2CCCCCCC2)c2cc(Cl)ccc21 |
| 226 to 228 | CN(CC(=O)O)S(=O)(=O)c1ccc(-c2ccc(NC(=O)c3cc4ccccc4o3)cc2)cc1 |
| 166 to 169 | CS(=O)(=O)c1ccc(-c2sc(-c3ccccc3Cl)nc2-c2ccc(F)cc2F)cc1 |
| 103 to 105 | CCN(Cc1cccs1)C(=O)C12CC3CC(CC(C3)C1)C2 |
| 122 | O=c1[nH]c2ccc(Cl)cc2n1CCCCl |
| 50 to 51 | O=C1c2ccccc2CCC1Cc1ccccc1 (configuration not stated) |
| 172 to 175 | Cc1ccc(-c2nnn(C(c3ccccc3)(c3ccccc3)c3ccccc3)n2)cc1 |
| 143 to 144 | Cc1cccc(-c2nc3cccnn3c2-c2ccnc(NCCN3CCCCC3)c2)c1 |
| 276 | O=C(O)c1ccc2c(c1)C(=O)c1ccccc1S2(=O)=O |
| 117 to 119 | O=C(Nc1ccc(OCCN2CCOCC2)c2ccccc12)c1cc(F)cc(OC2CCCC2)c1 |
| 74 to 76 | Cc1ccsc1C(=O)NCCO[N+](=O)[O-] |
| 136 to 137 | CN1CCc2c([nH]c(Br)c2Br)C(c2ccccc2)C1 (configuration not stated) |
| 222 to 224 | O=C(Nc1ccc(-n2nc(C(F)(F)F)cc2C(F)(F)F)cc1)c1ccc2c(c1)OCO2 |
| 175 to 177 | Cn1c(-c2ccc(OC3CCN(C4CCCC4)CC3)cc2)nc2ncccc2c1=O |
| 110 | CC1(C(O)(COc2ccc(Cl)cc2)Cn2cncn2)CC1(F)F (configuration not stated) |
| 197 to 199 | CCCc1n[nH]c(C(N)=O)c1[N+](=O)[O-] |
| 60 to 61 | CCCCCCCCCCCCCCCCCNC(=O)OCCOCCOC(=O)N(Cc1ccccn1)C(C)=O |
| > 225 | CC(C)(C)c1cc(C=C2SC(=S)N(N)C2=O)ccc1O |
| 143 | O=C(O)C1(CSc2ccc(Oc3ccc(Br)cc3)cc2)CCOCC1 |
| 136 to 139 | C=CCOc1ccc2c(C)cc(=O)oc2c1C(=O)C=Cc1ccccc1 |
| 141 to 143 | Cc1cn(-c2ccc(NC(=O)c3ccc(Cl)c(C#Cc4cnc(NC5CC5)nc4)c3)cc2C(F)(F)F)cn1 |
| > 250 | NC(=O)N1C(=O)C(C(=O)c2cccs2)c2ncc(Cl)cc21 (configuration not stated) |

| melting point [°C] | SMILES |
| --- | --- |
| 177 | Cc1ccccc1-n1cc(-c2ccccc2)c(CC(=O)O)n1 |
| 112 to 115 | Cc1nc2c(N)nc3ccccc3c2n1CCCNC(=O)OC(C)(C)C |
| 166 to 175 | Cc1cc(C(=O)N2Cc3ccc(C(=O)N(C)C[C@H](O)[C@H]4OC(=O)O[C@@H]4[C@H](O)CO)n3Cc3ccccc32)ccc1C1=CCCCC1 |
| 81 to 83 | O=[N+]([O-])c1ccc(OCc2ccccc2)c(CO)c1 |
| 48 to 50 | CCN(CC)CCNC(=O)c1cc(N(C)S(C)(=O)=O)ccc1OC |
| 194 to 195 | Cc1c(Cc2cccnc2)sc2ccc(C(N)=O)cc12 |
| 62 | COc1cc(F)c(-c2cncc(OC3SCC(OC(C)=O)C(OC(C)=O)C3OC(C)=O)c2)c(F)c1 (configuration not stated) |
| 110 to 111 | COC(=O)c1cc(-c2nnn(Cc3ccc(OC)cc3)n2)ccc1OC |
| 202 to 203 | CN1CCN(S(=O)(=O)c2ccc([C@@H](CC3CCCC3)C(=O)O)cc2)CC1 |
| 183 to 185 | CCC[C@H](N[C@@H](C)C(=O)N1N=C(C(C)(C)C)S[C@H]1C(=O)O)C(=O)OCC |
| 121 to 123 | O=[N+]([O-])c1ccc(N2C[C@H]3CN(Cc4ccccc4)C[C@H]3C2)cc1 |
| 159 to 162 | O=c1c2cccc3c2n(c(=O)n1CC(O)CO)-c1cc(C(F)(F)F)ccc1S3 (configuration not stated) |
| 98.4 to 101 | O=[N+]([O-])c1ccc(S(=O)(=O)N2CC3CN(Cc4ccccc4)CC(C2)O3)cc1 |
| 201 to 203 | CCNC1CCN(c2c(F)cc3c(=O)c(C(=O)O)cn(C4CC4)c3c2C)CC1(C)C (configuration not stated) |
| 196 to 198 | Cc1[nH]c(=O)n(CCC(C(=O)NO)N(C)S(=O)(=O)c2ccc(Oc3ccccc3)cc2)c(=O)c1F (configuration not stated) |
| 175 to 176 | CC(C)Nc1cccnc1N1CCN(C(=O)c2ccc(C(=O)N3CCNCC3)cc2)CC1 |
| 102 to 104 | Cc1cc(N2CCN(Cc3ccc(C(F)(F)F)cc3)C2=O)sc1C(=O)NCc1cccnc1 |
| 95 | NCC1COc2cc(Cl)cc(-c3ccccc3F)c2N1 (configuration not stated) |
| 141 | COc1cc2c(cc1OC)CN(CCCCOc1ccc(NC(=O)c3cnc4ccccc4n3)cc1)CC2 |
| 215 to 218 | Cc1ccc2nc3c(C)cc(=O)c(Cl)c-3sc2c1 |
| 124 to 126 | Cc1cc(Cl)ccc1N=CN(C)SN(C)C=Nc1ccc(Cl)cc1C |
| 243 to 244 | NC(=O)c1ccc2c(c1)C(=O)C1(CC1)O2 |
| 153 to 155 | CCCCC1(CCCC)CS(=O)(=O)c2ccc(N(C)C)cc2[C@@H](c2ccc(OCc3cccc(CN(CC(=O)O)CC(=O)O)n3)cc2)[C@H]1O |
| 136 to 137 | CNc1ccc(OCCN2CCC(Cc3ccc(C)cc3)CC2)cc1 |

| melting point [°C] | SMILES |
| --- | --- |
| 135 to 137 | COc1cc(C(C)=O)ccc1OCCCN1CCN(c2n[nH]c3cc(F)ccc23)CC1 |
| 162 to 164 | CC(c1cc(C(C)(C)C)c(O)c(C(C)(C)C)c1)N(O)C(N)=O (configuration not stated) |
| 239 to 240 | CCOC(=O)C(=CNn1cnnc1)C(=O)c1cc(F)c(F)cc1F |
| 135 to 137 | COc1ccc(/C=C/C(=O)Nc2ccccc2C(=O)OCC(=O)NCC(C)(C)SN=O)cc1OC |
| 142 to 143 | Cc1oc(-c2ccccc2)nc1COc1ccc(Cc2nc(-c3ccccc3)c(CCC(=O)O)o2)cc1 |
| 152 to 155 | CCCCCCCCCCCCCCCC(N=C=O)S(=O)(=O)c1ccc2ccccc2c1 (configuration not stated) |
| 223 to 225 | CC(C)C(=O)N[C@@H]1CCc2c(c3cc(C#N)ccc3n2Cc2cccc(F)c2)C1 |
| 84 to 86 | CCCC[C@@H](C)C[C@@H](CC(=O)OC(C)(C)C)C(=O)N1C(=O)O[C@@H](c2ccccc2)[C@H]1C |
| 181 to 182 | C=CCn1c(N)nc(N2CCc3ccccc3CC2)c(C#N)c1=O |
| 181 | O=C1C=C(O)CC(c2ccc3c(c2)OCO3)C1 (configuration not stated) |
| 189 to 193 | CS(=O)(=O)c1cccc(Cc2cc3cccc(-c4cccc(C(=O)NCC(N)=O)c4)c3s2)c1 |
| 129 to 131 | S=C(Nc1ccccc1)N(Cc1ccc(Br)cc1)C1CCCC1 |
| 183 to 185 | COC(=O)c1ccc(NS(=O)(=O)c2ccc(F)cc2)cn1 |
| 201 to 203 | COc1ccc(CSc2cc(C(=O)Nc3ccc(C#N)cc3)ccn2)cc1 |
| 91.5 to 94 | CCOC(=O)C(C=O)Cc1ccc(OC)nc1 (configuration not stated) |
| 162 to 164 | O=C(Nc1c(C(O)(C(F)(F)F)C(F)(F)F)ccc2ccccc12)c1ccno1 |
| 50.7 | COC(=O)C(C)Oc1cccc(C=O)c1 (configuration not stated) |
| 194 to 195 | CC(C)(C)Sc1c(CC(C)(C)C(=O)O)n(Cc2ccc(Cl)cc2)c2ccc(OCc3cscn3)cc12 |
| 256 to 259 | CNC(=O)c1ccc(N2CCN(Cc3cc4c(c(C5CC5)c3)OC(C)C(=O)N4)CC2)cc1 (configuration not stated) |
| 103 to 105 | COC(C)CNc1nccc(-c2ccnc(Nc3cccc(F)c3)c2)n1 (configuration not stated) |
| 226 to 227 | COCCc1nc2c(N)nc3ccccc3c2n1CCCCNC(=O)c1c[nH]c2ccccc12 |
| 130 to 132 | CC(C)(C)Nc1nc2cc(Cl)c(Cl)cc2n1C1CC(CO)C(O)C1O (configuration not stated) |
| 252 to 253 | COc1ccc2[nH]c(C(C)C)c(/C=C/C(=O)c3ccncc3)c2c1 |
| 70 | CCOc1ccc(C=O)c(F)c1F |

| melting point [°C] | SMILES |
| --- | --- |
| 103 | CC(C)(C)[N+]([O-])=Cc1cc(Cl)cc(Cl)c1O |
| 106 to 109 | O=C(NC1CCCCC1)N1C(=O)C2(CCCCC2)NC12CCCCC2 |
| 122 to 124 | CCCCc1nc(Cl)c(C=O)n1Cc1ccc2oc(-c3ccccc3-c3nnn[nH]3)c(Br)c2c1 |
| 200 to 201 | CSC1=Nc2ccccc2Cc2nccn21 |
| 218 to 222 | CN(C)CCCC(=O)Nc1nc2c(s1)-c1c(cnn1-c1ccccc1)C2 |
| 253 to 255 | CCOCc1nc2c(N)nc3cc(OCc4ccccc4Cl)ccc3c2n1CC(C)(C)NS(C)(=O)=O |
| 142 to 145 | COC(=O)CNC(=S)n1nc(-c2ccc(Cl)cc2)nc1N |
| 258 to 259 | CC(=O)NC(C(=O)Nc1ccc(C(=O)O)cc1)c1ccc2c(c1)C(C)(C)CCC2(C)C (configuration not stated) |
| 156 to 157 | Cc1ccc(C(=O)Nc2ccc(CN(C)C)c(C(F)(F)F)c2)cc1-c1ccc2cnncc2c1 |
| 48 to 50 | CCCCC1(C#N)C2CC3CC(C2)CC1C3 (configuration not stated) |
| > 310 | Cc1nc(=O)[nH]c2cc(Cl)c(NC(N)=O)cc12 |
| 116 to 120 | CN(C)C(=NC1CCCCC1)C(N)=S |
| 82 to 84 | CC(=O)OCC1OC(n2cc(C(Br)=CI)c(=O)[nH]c2=O)CC1OC(C)=O (configuration not stated) |
| 65 to 67 | CCCc1c(C(=O)N(CC)CC)ccc(OC)c1OC |
| 65 | CN(C)C(=S)n1cnc(S(=O)(=O)CC2CCCC2)n1 |
| 161 to 170 | O=Cc1ccc2c(c1)Cc1cc(Br)ccc1-2 |
| 95 to 100 | N#Cc1c(OC(F)(F)Br)ncnc1N1CCc2ccccc2CC1 |
| 148 to 149 | O=C1N[C@H](Cc2cccc(OCC(F)(F)F)c2)[C@H](c2ccc(F)cc2)O1 (racemic) |
| 167 | O=P1(O)OCc2ccccc21 |
| 245 to 247 | COc1ccc(CC(=O)N[C@H]2C[C@H](C(=O)O)Nc3cc(Cl)cc(Cl)c32)cc1 (relative stereo) |
| 77 to 78 | FC(F)(F)c1cccc(OCc2ccc3ccccc3n2)c1 |
| 90 to 95 | CCOC(=O)C1Cc2c(n(C)c3ccc(OCc4ccccc4)cc23)C1 (configuration not stated) |

| SMILES | melting point [°C] |
| --- | --- |
| COc1cc(OC)c2c(=O)cc(-c3ccc(C)cc3)oc2c1C1=CCN(C)CC1 | 113 to 114 |
| O=[N+]([O-])c1ccc2c(C3=CCN(CCCOc4cccc5[nH]ccc45)CC3)c[nH]c2c1 | 215 to 225 |
| N#CCN1C(=O)N(c2ccc(C#N)c(C(F)(F)F)c2)C(=O)C1(CF)CF | 125 |
